The values that follow come from US7863315B2, “2-indolinone derivatives as selective histone deacetylase inhibitors” (Shenzhen Chipscreen Biosciences, Ltd., priority 2008, dated 2011).

The structures appear in SMILES notation.

Holding throughout (format): cell-based
One experiment has as its system lysine acetylation. The experiment in a line: ELISA assay of acetylation of lysine in HeLa cells. The following applies: Homo sapiens, M-HeLa, 24 hours. From the text: Measurement of acetylation activity in cells on substrates:
ELISA Assay of Acetylation of Lysine
This assay is used to measure in vivo inhibition of HDAC6 in a cytoblot assay.
Materials and Reagent: • 1. 24-well tissue culture • 2. DMEM Medium containing 10% FBS • 3. 96-well white plate • 4. HeLa cell line • 5. M-PER Mammalian Protein Extraction Reagent (Pierce) • 6. Bradford assay reagent • 7. Acetylated-lysine polyclonal Antibody (Cell Signaling) • 8. HRP-labeled anti-rabbit IgG (Upstate) • 9. Coating Buffer: 15 mM Na2CO3, 35 mM NaHCO3 (pH 9.6) • 10. 10×PBS: 0.58M Na2HPO4, 0.17M NaH2PO4, 0.68M NaCl (pH 7.4) • 11. Wash Buffer:1×PBS containing 0.05% Tween-20 (PBST) • 12. Blocking Buffer:10 mg/ml bocine serum albumin (BSA) in PBS • 13. Antibody Dilution Buffer: 5 mg/ml BSA in PBST • 14. Enhanced chemiluminescence (ECL) (Amersham)
Procedure for performing the assay in 96-well plate: • 1. HeLa cells were seeded at a density of 60000 cells/500 μl/well in 24-well plate and incubated at 37° C. for 24 hours. • 2. Compounds were added and incubated for 24 hours at 37° C. • 3. Culture medium was removed, then washes the cells twice with ice-cold PBS. • 4. Add 100 μl/well of Protein Extraction Reagent and gently shake the mixture for 5 minutes. • 5. Collect the lysate to a 96-well plate respectively. Determine the concentration of protein by Bradford assay. • 6. Coat the wells of a 96-well white plate with 100 μl/well of 2.5 μg whole cell protein in Coating Buffer by incubating overnight at 4° C. • 7. Discard the uncoated proteins and wash the coated wells three times with 200 μl/well of PBST. • 8. Block coated wells by incubating the plate with 200 μl/well of Blocking Buffer for 1 hour at 37° C. • 9. Wells were aspirated and washed three times with 200 μl/well of PBST. • 10. After aspirating, 50 μl/well of Antibody Dilution Buffer containing acetylated-lysine polyclonal antibody (1:1000) were added to each well and incubated for 2 hour at 37° C. • 11. Wells were aspirated and washed three times with 200 μl/well of PBST. • 12. 50 μl/well of Antibody Dilution Buffer containing HRP-labeled anti-rabbit IgG (1:2000) were added to each well and incubated for 2 hour at 37° C. • 13. Wells were aspirated and washed three times with 200 μl/well of PBST. • 14. Wells were washed three times with 200 μl/well of purified water. • 15. Add 50 μl/well of ECL mixture, then read the plates on the plate reader.

Experiment [1] relates to HDAC3 (gdf11 reporter gene). The experiment can be described thus: HDAC subtype reporter gene assay, gdf11-promoter luciferase in HeLa cells. The following applies: Homo sapiens, M-HeLa, read-out: % of SAHA Response for HDAC3 at 10 μM (gdf11 reporter gene), 24 hours. The protocol:
(§1) Measurement of inhibition of HDAC subtypes activity in cells by reporter gene assay: HDAC subtype selectivity inhibition assay of tested compounds was carried out by several reporter gene assays experiments. Briefly, HeLa cells were seeded in 96-well plates the day before transfection to give a confluence of 50-80%. Cells were transfected with one of reporter gene plasmids containing a promoter sequences or response elements upstream of a luciferase gene construct using FuGene6 transfection reagent according to the manufacturer's instructions (Roche). The promoters or response elements including p21-promoter, gdf11-promoter, MEF-binding element (MEF2), Nur77-promoter were fused upstream to the luciferase gene reporter construct. For normalizing the transfection efficiency, a GFP expression plasmid was cotransfected. Cells were allowed to express protein for 24 hours followed by addition of individual compounds or the vehicle (DMSO). 24 hours later, the cells were harvested and the luciferase assays were performed using the luciferase assay kit according to the manufacturer's instructions (Promega). To normalize the data from the luciferase assays, GFP activity from transfected cells was measured in a microtiter-plate reading fluorimeter capable of excitation at a wavelength at 485 nm and detection of emitted light at 527 nm.

The test system of experiment [2] is HDAC class I (p21 reporter gene). The experiment can be described thus: HDAC subtype reporter gene assay, p21-promoter luciferase in HeLa cells. The following applies: Homo sapiens, M-HeLa, read-out: % of SAHA Response for HDAC class I at 10 μM (p21 reporter gene), 24 hours. The protocol:
as §1

Experiment [3] relates to HDAC4/5 (MEF2 reporter gene). The experiment in a line: HDAC subtype reporter gene assay, MEF-binding element (MEF2) luciferase in HeLa cells. The following applies: Homo sapiens, M-HeLa, read-out: % of SAHA Response for HDAC4/5 at 10 μM (MEF2 reporter gene), 24 hours. How it is done: as §1
The test system of experiment [4] is HDAC7 (Nur77 reporter gene). The experiment in a line: HDAC subtype reporter gene assay, Nur77-promoter luciferase in HeLa cells. The note with it: Homo sapiens, M-HeLa, read-out: % of SAHA Response for HDAC7 at 10 μM (Nur77 reporter gene), 24 hours. How it is done: as §1

Regarding `Nc1ccccc1NC(=O)CCCCCNC(=O)c1ccc(/C=C2\C(=O)Nc3ccc(F)cc32)cc1` [Example 39, 6-(4-((5-fluoro-2-oxoindolin-3-ylidene)methyl)benzamido)-N-(2-aminophenyl)hexanamide], the fold induction at 10 µM in the experiment on lysine acetylation turned out to be 1.73. Also, the Emax at 10 µM in experiment [1] was found to be 41%; in experiment [2], 67%; in experiment [3] it was 45%; in experiment [4] it was 29%.

Take `Nc1cc(F)ccc1NC(=O)CCCCNC(=O)c1cccc(/C=C2\C(=O)Nc3ccc(F)cc32)c1` [Example 50, 5-(3-((5-fluoro-2-oxoindolin-3-ylidene)methyl)benzamido)-N-(2-amino-4-fluorophenyl)pentanamide]: the fold induction at 10 µM in the experiment with lysine acetylation stood at 1.08. Besides, the Emax at 10 µM turned out to be 4% in experiment [1], 7% in experiment [2], 43% in experiment [3] and 12% in experiment [4].

For the molecule `Nc1cc(F)ccc1NC(=O)CCCCCNC(=O)c1cccc(/C=C2\C(=O)Nc3ccc(F)cc32)c1` [Example 45, 6-(3-((5-fluoro-2-oxoindolin-3-ylidene)methyl)benzamido)-N-(2-amino-4-fluorophenyl)hexanamide], the fold induction at 10 µM in the experiment on lysine acetylation is 1.17. For the same molecule, the Emax at 10 µM was 12% in experiment [1], 19% in experiment [2], 44% in experiment [3] and 16% in experiment [4].

`Cc1[nH]c(/C=N/N=C2\C(=O)Nc3ccc(F)cc32)c(C)c1C(=O)NCCCCCC(=O)Nc1ccccc1N` [Example 13, 6-(5-(((5-fluoro-2-oxoindolin-3-ylidene)hydrazono)methyl)-2,4-dimethyl-1H-pyrrole-3-carboxamido)-N-(2-aminophenyl)hexanamide]: the fold induction at 10 µM in the experiment on lysine acetylation was 3.08. Moreover, the Emax at 10 µM in experiment [1] was found to be 13%; in experiment [2] it was 18%; in experiment [3], 18%; in experiment [4], 5%.

With `Cc1[nH]c(/C=N/N=C2\C(=O)Nc3ccc(F)cc32)c(C)c1C(=O)NCCCCC(=O)Nc1ccc(F)cc1N` [Example 8, 5-(5-(((5-fluoro-2-oxoindolin-3-ylidene)hydrazono)methyl)-2,4-dimethyl-1H-pyrrole-3-carboxamido)-N-(2-amino-4-fluorophenyl)pentanamide], the fold induction at 10 µM in the experiment with lysine acetylation stood at 2.01. The Emax at 10 µM in experiment [1] came to 5%; in experiment [2], 7%; in experiment [3], 23%; in experiment [4], 4%.

On to `Cc1[nH]c(/C=N/N=C2\C(=O)Nc3ccc(F)cc32)c(C)c1C(=O)NCCCCCCCC(=O)NO` [Example 26, 8-(5-(((5-fluoro-2-oxoindolin-3-ylidene)hydrazono)methyl)-2,4-dimethyl-1H-pyrrole-3-carboxamido)-N-hydroxyoctanamide], for which the fold induction at 10 µM in the experiment with lysine acetylation stood at 2.42. Moreover, the Emax at 10 µM in experiment [1] was found to be 38%; in experiment [2] it was 53%; in experiment [3], 20%; in experiment [4], 11%.

The molecule `Cc1[nH]c(/C=N/N=C2\C(=O)Nc3ccc(F)cc32)c(C)c1C(=O)NCCCCCC(=O)Nc1ccc(F)cc1N` [Example 12, 6-(5-(((5-fluoro-2-oxoindolin-3-ylidene)hydrazono)methyl)-2,4-dimethyl-1H-pyrrole-3-carboxamido)-N-(2-amino-4-fluorophenyl)hexanamide] yielded a fold induction at 10 µM in the experiment with lysine acetylation of 1.84. Besides, the Emax at 10 µM was found to be 6% in experiment [1], 9% in experiment [2], 35% in experiment [3] and 6% in experiment [4].

In the case of `Nc1cc(F)ccc1NC(=O)CCCCCCCNC(=O)c1cccc(/C=C2\C(=O)Nc3ccc(F)cc32)c1` [Example 55, 8-(3-((5-fluoro-2-oxoindolin-3-ylidene)methyl)benzamido)-N-(2-amino-4-fluorophenyl)octanamide], the fold induction at 10 µM in the experiment with lysine acetylation was 1.12. In addition, the Emax at 10 µM in experiment [1] amounted to 6%; in experiment [2], 10%; in experiment [3], 36%; in experiment [4], 9%.

Consider `Nc1ccccc1NC(=O)CCCCNC(=O)c1cccc(/C=C2\C(=O)Nc3ccc(F)cc32)c1` [Example 49, 5-(3-((5-fluoro-2-oxoindolin-3-ylidene)methyl)benzamido)-N-(2-aminophenyl)pentanamide], for which the fold induction at 10 µM with lysine acetylation stood at 1.02. For the same molecule, the Emax at 10 µM in experiment [1] was 11%; in experiment [2] it was 18%; in experiment [3] it was 32%; in experiment [4], 8%.

In the case of `Nc1ccccc1NC(=O)CCCCCCCNC(=O)c1cccc(/C=C2\C(=O)Nc3ccc(F)cc32)c1` [Example 54, 8-(3-((5-fluoro-2-oxoindolin-3-ylidene)methyl)benzamido)-N-(2-aminophenyl)octanamide], the fold induction at 10 µM with lysine acetylation is 1.34. In addition, the Emax at 10 µM came to 52% in experiment [1], 72% in experiment [2], 53% in experiment [3] and 25% in experiment [4].

The molecule `Nc1ccccc1NC(=O)CCCCCCCNC(=O)c1ccc(/C=N/N=C2\C(=O)Nc3ccc(F)cc32)cc1` [Example 35, 8-(4-(((5-fluoro-2-oxoindolin-3-ylidene)hydrazono)methyl)benzamido)-N-(2-aminophenyl)octanamide] displayed a fold induction at 10 µM with lysine acetylation of 1.04. Moreover, the Emax at 10 µM is 36% in experiment [1], 56% in experiment [2], 46% in experiment [3] and 13% in experiment [4].

`O=C(CCCCCCCNC(=O)c1cccc(/C=C2\C(=O)Nc3ccc(F)cc32)c1)NO` [Example 56, 8-(3-((5-fluoro-2-oxoindolin-3-ylidene)methyl)benzamido)-N-hydroxyoctanamide]: the fold induction at 10 µM with lysine acetylation amounted to 1.7. The Emax at 10 µM in experiment [1] stood at 56%; in experiment [2], 65%; in experiment [3], 62%; in experiment [4] it was 27%.

As to `Cc1[nH]c(/C=N/N=C2\C(=O)Nc3ccc(F)cc32)c(C)c1C(=O)NCCCCCCCC(=O)Nc1ccc(F)cc1N` [Example 27, 8-(5-(((5-fluoro-2-oxoindolin-3-ylidene)hydrazono)methyl)-2,4-dimethyl-1H-pyrrole-3-carboxamido)-N-(2-amino-4-fluorophenyl)octanamide], the fold induction at 10 µM in the experiment on lysine acetylation amounted to 2.13. Moreover, the Emax at 10 µM in experiment [1] is 6%; in experiment [2], 8%; in experiment [3] it was 37%; in experiment [4], 6%.

Take `Cc1[nH]c(/C=N/N=C2\C(=O)Nc3ccc(F)cc32)c(C)c1C(=O)NCCCCCCCC(=O)Nc1ccccc1N` [Example 28, 8-(5-(((5-fluoro-2-oxoindolin-3-ylidene)hydrazono)methyl)-2,4-dimethyl-1H-pyrrole-3-carboxamido)-N-(2-aminophenyl)octanamide]: the fold induction at 10 µM in the experiment with lysine acetylation is 1.7. Further, the Emax at 10 µM in experiment [1] is 26%; in experiment [2] it was 36%; in experiment [3], 32%; in experiment [4], 16%.
